{
  "source": "paper PMC4220649",
  "about": "(Blood Cancer Journal, 2014)",
  "origin": "cited, not measured here",
  "test_system": "patients with lymphoma",
  "details": "IV bortezomib in lymphoma; cited from earlier work",
  "data": [
    {"smiles": "CC(C)C[C@H](NC(=O)[C@H](Cc1ccccc1)NC(=O)c1cnccn1)B(O)O", "note": "[bortezomib]", "values": [
      {"measurement": "Grade 3 PN rates", "value": "3–13%"},
      {"measurement": "Overall rates of PN", "value": "17–55%"}
    ]}
  ]
}
